Assay results taken from patent US11180479B2 (HAPLOGEN GmbH, priority 2017, dated 2021).

Experiments:
PLA2G16 = target: T1, PLA2G16 (Homo sapiens, UniProt P53816); test: Enzyme activity assay for PLA2G16 (Red/Green BODIPY PC-A2 fluorescence); assay type: biochemical; details: His-tagged PLA2G16, 4 min pre-incubation, compound 2 nM to 50 μM; first symbol in parentheses
T1 construct: Hexa-His (N); made in house; host or cells: E. coli BL21(DE3)
T1 sequence (P53816 1-162): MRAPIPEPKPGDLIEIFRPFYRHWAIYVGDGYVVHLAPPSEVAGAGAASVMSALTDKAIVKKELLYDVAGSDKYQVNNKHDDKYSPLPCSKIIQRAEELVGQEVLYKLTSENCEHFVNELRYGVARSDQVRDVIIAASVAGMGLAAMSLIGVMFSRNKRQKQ
In short: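 N-His human PLA2G16 was expressed in E. coli and Ni-NTA purified. Enzyme in 5 mM glutathione was preincubated 4 min with compound (2 nM–50 μM final), then Red/Green BODIPY PC-A2 in DOPC/DOPG/cholesterol vesicles was added (50 mM Tris pH 8.5, 100 mM NaCl). Fluorescence increase (ex 480/em 530 nm) over 10 min gave activity; IC50 came from nonlinear regression.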

[1] = tested on: picornaviruses (CVB1, HRV-A2, HRV-A23, EV-68); test: Anti-picornavirus cytopathic effect (CPE) reduction assay on HeLa H1 cells; assay type: cell-based; details: 48 h, category from averaging EC50 values of four picornaviruses (CVB1, HRV-A2, HRV-A23, EV68), second symbol in parentheses
In short: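 HeLa H1 cells pre-treated 2 h with serial compound dilutions in 2% FBS DMEM, then infected at an MOI giving full CPE in 2 days; after 48 h, viability by CellTiterBlue fluorescence (560/590 nm) normalised to infected and uninfected vehicle controls; EC50 by non-linear regression, averaged over the four viruses.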

Structure (SMILES) | IC50 (PLA2G16) [nM] | EC50 [1] [nM]
CC(F)(F)CNC(=O)C(=O)[C@H]1CN(c2cccc(=O)[nH]2)C(=O)[C@@H]1Cc1ccccc1 (racemic) [FP-74, Rac-2-[(3R,4R)-4-benzyl-5-oxo-1-(6-oxo-1,6-dihydropyridin-2-yl)pyrrolidin-3-yl]-N-(2,2-difluoropropyl)-2-oxoacetamide] | < 1000 | < 1000
CCNC(=O)C(=O)[C@H]1CN(CC2CCOCC2)C(=O)[C@@H]1Cc1ccccc1 (racemic) [FP-33, Rac-2-[(3R,4R)-4-benzyl-1-[(oxan-4-yl)methyl]-5-oxopyrrolidin-3-yl]-N-ethyl-2-oxoacetamide] | < 1000 | < 1000
CC(F)(F)CNC(=O)C(=O)[C@@H]1CN(c2cncnc2)C(=O)[C@H]1Cc1ccccc1 (single isomer, unassigned) [FP-96] | < 1000 | 1000 to 10000
Cn1ncnc1CN1C[C@H](C(=O)C(=O)NC2CC2)[C@@H](Cc2ccccc2)C1=O (single isomer, unassigned) [FP-98] | < 1000 | 1000 to 10000
CC(F)(F)CNC(=O)C(=O)[C@H]1CN(c2cncnc2)C(=O)[C@@H]1Cc1ccccc1 (racemic) [FP-56, Rac-2-[(3R,4R)-4-benzyl-5-oxo-1-(pyrimidin-5-yl)pyrrolidin-3-yl]-N-(2,2-difluoropropyl)-2-oxoacetamide] | < 1000 | < 1000
CCNC(=O)C(=O)[C@H]1CN(Cc2ncccn2)C(=O)[C@@H]1Cc1ccccc1 (racemic) [FP-36, Rac-2-[(3R,4R)-4-benzyl-5-oxo-1-[(pyrimidin-2-yl)methyl]pyrrolidin-3-yl]-N-ethyl-2-oxoacetamide] | < 1000 | 1000 to 10000
O=C(NCC(F)(F)F)C(=O)[C@H]1CNC(=O)[C@@H]1c1ccccc1 (racemic) [FP-22, Rac-2-oxo-2-[(3R,4S)-5-oxo-4-phenylpyrrolidin-3-yl]-N-(2,2,2-trifluoroethyl)acetamide] | < 1000 | 1000 to 10000
O=C(NC1CC1)C(=O)[C@H]1CN(c2cc(Cl)cc(OCc3ccccc3)n2)C(=O)[C@@H]1Cc1ccccc1 (racemic) [FP-72, Rac-2-[(3R,4R)-4-benzyl-1-[6-(benzyloxy)-4-chloropyridin-2-yl]-5-oxopyrrolidin-3-yl]-N-cyclopropyl-2-oxoacetamide] | < 1000 | < 1000
O=C(NCC1CC1)C(=O)[C@H]1CNC(=O)[C@@H]1c1ccccc1 (single isomer, unassigned) [FP-86] | < 1000 | < 1000
CC(F)(F)CNC(=O)C(=O)[C@H]1CN(c2cncnc2C#N)C(=O)[C@@H]1Cc1ccccc1 (racemic) [FP-66, Rac-2-[(3R,4R)-4-benzyl-1-(4-cyanopyrimidin-5-yl)-5-oxopyrrolidin-3-yl]-N-(2,2-difluoropropyl)-2-oxoacetamide] | < 1000 | 1000 to 10000
COc1ccc(CN2C[C@H](C(=O)C(=O)NC3CC3)[C@@H](c3ccccc3)C2=O)cc1 (racemic) [FP-102, Rac-N-cyclopropyl-2-[(3R,4S)-1-[(4-methoxyphenyl)methyl]-5-oxo-4-phenylpyrrolidin-3-yl]-2-oxoacetamide] | < 1000 | < 1000
CC(C)CNC(=O)C(=O)[C@H]1CN(CC(=O)N(C)C)C(=O)[C@@H]1Cc1ccccc1 (single isomer, unassigned) [FP-92] | < 1000 | 1000 to 10000
CC1(NC(=O)C(=O)[C@H]2CNC(=O)[C@@H]2c2ccccc2)CC1 (racemic) [FP-20, Rac-N-(1-methylcyclopropyl)-2-oxo-2-[(3R,4S)-5-oxo-4-phenylpyrrolidin-3-yl]acetamide] | < 1000 | 1000 to 10000
O=C(NC1CC1)C(=O)C1CC(=O)N(Cc2ccccc2)C1 (stereo not drawn) [FP-104, 2-(1-Benzyl-5-oxopyrrolidin-3-yl)-N-cyclopropyl-2-oxoacetamide] | < 1000 | 1000 to 10000
O=C(NC1CC1)C(=O)[C@H]1CN(CCN2CCCC2=O)C(=O)[C@@H]1Cc1ccccc1 (racemic) [FP-48, Rac-2-[(3R,4R)-4-benzyl-5-oxo-1-[2-(2-oxopyrrolidin-1-yl)ethyl]pyrrolidin-3-yl]-N-cyclopropyl-2-oxoacetamide] | < 1000 | 1000 to 10000
Cc1cc(CN2C[C@H](C(=O)C(=O)NC(C)C)[C@@H](c3ccccc3)C2=O)no1 (racemic) [FP-101, Rac-2-[(3R,4S)-1-[(5-methyl-1,2-oxazol-3-yl)methyl]-5-oxo-4-phenylpyrrolidin-3-yl]-2-oxo-N-(propan-2-yl)acetamide] | < 1000 | 1000 to 10000
O=C(NC1CC1)C(=O)[C@H]1CN(c2cncnc2)C(=O)[C@@H]1c1ccccc1 (racemic) [FP-63, Rac-N-cyclopropyl-2-oxo-2-[(3R,4S)-5-oxo-4-phenyl-1-(pyrimidin-5-yl)pyrrolidin-3-yl]acetamide] | < 1000 | 1000 to 10000
CC(F)(F)CNC(=O)C(=O)[C@H]1CN(c2cccc(OCc3ccccc3)n2)C(=O)[C@@H]1Cc1ccccc1 (racemic) [FP-73, Rac-2-[(3R,4R)-4-benzyl-1-[6-(benzyloxy)pyridin-2-yl]-5-oxopyrrolidin-3-yl]-N-(2,2-difluoropropyl)-2-oxoacetamide] | < 1000 | < 1000

Further lines, results first:

IC50 (PLA2G16) [nM] | EC50 [1] [nM] | Structure (SMILES)
< 1000 | < 1000 | O=C(NC1CC1)C(=O)[C@H]1CN(c2cncnc2)C(=O)[C@@H]1Cc1ccccc1 (single isomer, unassigned) [FP-89]
< 1000 | < 1000 | O=C(NCC1CC1)C(=O)[C@H]1CNC(=O)[C@@H]1c1ccccc1 (racemic) [FP-10, Rac-N-(cyclopropylmethyl)-2-oxo-2-[(3R,4S)-5-oxo-4-phenylpyrrolidin-3-yl]acetamide]
< 1000 | 1000 to 10000 | O=C(NC1CC1)C(=O)[C@H]1CN(Cc2ncccn2)C(=O)[C@@H]1Cc1ccccc1 (racemic) [FP-35, Rac-2-[(3R,4R)-4-benzyl-5-oxo-1-[(pyrimidin-2-yl)methyl]pyrrolidin-3-yl]-N-cyclopropyl-2-oxoacetamide]
< 1000 | 1000 to 10000 | O=C(NC1CC1)C(=O)[C@@H]1CN(c2cncnc2)C(=O)[C@H]1Cc1ccccc1 (single isomer, unassigned) [FP-90]
< 1000 | > 10000 | Cn1ncnc1CN1C[C@H](C(=O)C(=O)NC2CC2)[C@@H](Cc2ccc(F)cc2)C1=O (racemic) [FP-52, Rac-N-cyclopropyl-2-[(3R,4R)-4-[(4-fluorophenyl)methyl]-1-[(1-methyl-1H-1,2,4-triazol-5-yl)methyl]-5-oxopyrrolidin-3-yl]-2-oxoacetamide]
< 1000 | < 1000 | O=C(NC1CC1)C(=O)[C@H]1CN(c2cc(Cl)cc(=O)[nH]2)C(=O)[C@@H]1Cc1ccccc1 (racemic) [FP-71, Rac-2-[(3R,4R)-4-benzyl-1-(4-chloro-6-oxo-1,6-dihydropyridin-2-yl)-5-oxopyrrolidin-3-yl]-N-cyclopropyl-2-oxoacetamide]
< 1000 | < 1000 | O=C(NC1CC1)C(=O)[C@H]1CN(c2cnccn2)C(=O)[C@@H]1Cc1ccccc1 (single isomer, unassigned) [FP-93]
< 1000 | 1000 to 10000 | O=C(NC1CC1)C(=O)[C@H]1CN(c2ccncn2)C(=O)[C@@H]1Cc1ccccc1 (racemic) [FP-61, Rac-2-[(3R,4R)-4-benzyl-5-oxo-1-(pyrimidin-4-yl)pyrrolidin-3-yl]-N-cyclopropyl-2-oxoacetamide]
< 1000 | 1000 to 10000 | O=C(NCC1CC1)C(=O)[C@@H]1CNC(=O)[C@H]1Cc1ccccc1 (single isomer, unassigned) [FP-82]
< 1000 | 1000 to 10000 | CC(F)(F)CNC(=O)C(=O)[C@H]1CNC(=O)[C@@H]1c1ccc(F)cc1 (racemic) [FP-26, Rac-N-(2,2-difluoropropyl)-2-[(3R,4S)-4-(4-fluorophenyl)-5-oxopyrrolidin-3-yl]-2-oxoacetamide]
< 1000 | < 1000 | CC(C)NC(=O)C(=O)[C@H]1CNC(=O)[C@@H]1Cc1ccccc1 (racemic) [FP-5, Rac-2-[(3R,4R)-4-benzyl-5-oxopyrrolidin-3-yl]-2-oxo-N-(propan-2-yl)acetamide]
< 1000 | 1000 to 10000 | CC(C)ONC(=O)C(=O)[C@H]1CNC(=O)[C@@H]1Cc1ccc(F)cc1 (racemic) [FP-77, Rac-2-[(3R,4R)-4-[(4-fluorophenyl)methyl]-5-oxopyrrolidin-3-yl]-2-oxo-N-(propan-2-yloxy)acetamide]
< 1000 | 1000 to 10000 | O=C(NC1CC1)C(=O)[C@@H]1CN(c2cnccn2)C(=O)[C@H]1Cc1ccccc1 (single isomer, unassigned) [FP-94]
< 1000 | < 1000 | O=C(NC1CC1)C(=O)[C@H]1CN(c2cnccn2)C(=O)[C@@H]1Cc1ccccc1 (racemic) [FP-57, Rac-2-[(3R,4R)-4-benzyl-5-oxo-1-(pyrazin-2-yl)pyrrolidin-3-yl]-N-cyclopropyl-2-oxoacetamide]
< 1000 | < 1000 | O=C(NC1CC1)C(=O)[C@H]1CNC(=O)[C@@H]1Cc1ccc(F)cc1 (racemic) [FP-29, Rac-N-cyclopropyl-2-[(3R,4R)-4-[(4-fluorophenyl)methyl]-5-oxopyrrolidin-3-yl]-2-oxoacetamide]
